In US20120219538A1, “STABILIZED PROTEIN FORMULATIONS AND USE THEREOF” (THERAPEOMIC AG, priority 2009, published 2012):
Read-outs that look alike come from different tables or passages of the source.

Molecular target: T1, salmon calcitonin (sCT) (Oncorhynchus keta, UniProt P01263)
T1 construct: Salmon calcitonin is a 32-amino acid polypeptide hormone; purchased Therapeomic Inc., Switzerland
T1 sequence (P01263 83-114 limits assumed): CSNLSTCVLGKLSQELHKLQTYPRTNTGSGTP
Assay type: physicochemical
Settings: 10 mM sodium citrate buffer pH 6, 1:1 molar ratio; for slope of aggregation curve: Nile red fluorescence at 620 nm; for lag time of aggregation: OD at 450 nm
Protocol: Salmon calcitonin (Therapeomic Inc., Switzerland) in a final concentration of 2.5 mg/ml per well with and without the respective excipients to be tested, i.e. non-conjugated mPEG-amines and non-conjugated hydrophobic headgroups were prepared in 4 different buffer systems: 10 mM sodium acetate pH 5, 10 mM sodium citrate pH 5, 10 mM sodium citrate pH 6, 10 mM sodium phosphate buffer pH 8. Samples are prepared two times and nile red in a final concentration of 1 μM is added to one of each. Aggregation is followed in UV-transparent 96-well plates or 384-well Costar® plates from Corning (Corning Life Sciences, Schiphol, Netherlands) by a microplate reader (Tecan Safire™ microplate reader, Tecan Group Ltd, Männedorf, Switzerland) by monitoring turbidity, nile red fluorescence and intrinsic fluorescence of the protein/peptide drug or the hydrophobic head-group. After finishing the aggregation kinetics, final spectra of nile red fluorescence, UV and protein/peptide drug or hydrophobic head group fluorescence were measured.
Aggregation was checked in absence of any excipient, in presence of equimolar amounts of dansylamide, mPEG-amine 2 kD and dansyl-mPEG 2 kD, respectively.

salmon calcitonin [sCT]
slope of aggregation curve (Table 2): 1843 a.u./hrs | lag time of aggregation (Table 2): 3.5 h | Nile red fluorescence at 620 nm (Table 2, time 0 hrs): 1058 | OD at 450 nm (Table 2, time 0 hrs): 0.10 | Nile red fluorescence at 620 nm (Table 2, time 9.5 hrs): 18581 | OD at 450 nm (Table 2, time 9.5 hrs): 0.22 | Nile red fluorescence at 620 nm (Table 2, time 20 hrs): 27276 | OD at 450 nm (Table 2, time 20 hrs): 0.63 | Nile red fluorescence at 620 nm (Table 2, time 100 hrs): 25328 | OD at 450 nm (Table 2, time 100 hrs): 0.68 | Nile red fluorescence at 620 nm (Table 2, time 166 hrs): 24729 | OD at 450 nm (Table 2, time 166 hrs): 0.64 | slope of aggregation curve (Table 3, higher detector sensitivity): 5546 a.u./hrs | lag time of aggregation (Table 3): 4.2 h | OD at 450 nm (Table 3, time 0 hrs): 0.11 | Nile red fluorescence at 620 nm (Table 3, time 0 hrs, higher sensitivity of the fluorescence detector than Table 2): 4560 | Nile red fluorescence at 620 nm (Table 3, time 5 hrs, higher sensitivity of the fluorescence detector than Table 2): 38483 | OD at 450 nm (Table 3, time 6.2 hrs): 0.15 | OD at 450 nm (Table 3, time 10 hrs): 0.22 | Nile red fluorescence at 620 nm (Table 3, time 10 hrs, higher sensitivity of the fluorescence detector than Table 2): 61019 | Nile red fluorescence at 620 nm (Table 3, time 13.5 hrs, higher sensitivity of the fluorescence detector than Table 2): >65000 | Nile red fluorescence at 620 nm (Table 3, time 20 hrs, higher sensitivity of the fluorescence detector than Table 2): >65000 | OD at 450 nm (Table 3, time 30.5 hrs): 0.49 | OD at 450 nm (Table 3, time 140 hrs): 0.56
